Experimental data from US5145872A, “Peptides with pharmaceutical activity” (Zambon Group, S.p.A., priority 1988, dated 1992).
Values joined by “and” are separate entries in the source; they are usually repeats but may differ in a detail not shown here. Identical values can stand only once. “Also recorded” adds a separate entry of the source.

Legend:
[1] = test system: methionine-enkephalin-induced analgesia; assay: Potentiation of methionine-enkephalin-induced analgesia (hot plate test), product given i.v.; assay type: in vivo, Male Swiss mice; conditions: for Reaction time areas, Product: product alone
Description: (§1) Male Swiss mice (CD Charles River) weighing 22-24 g received intracerebroventricular (i.c.v.) injection of methionineenkephalin as described by Haley and Mc Cormick [Br. J. Pharmacol., 12, 12-15, (1957)].
(§2) Methionine-enkephalin was dissolved in distilled water and microinjected in a volume of 10 μl/mouse and in a dose analgesic in less than 30% of animals. The dose (10.25 or 50 μg/mouse) was chosen at the beginning of each experience depending on each batch's analgesic activity.
(§3) The antinociceptive effect was tested by the hot plate test as described by Eddy and Leimbach [(J. Pharmacol. Exptl. Therap., 107, 385-393, (1953)]. The time in seconds from contact with the plate (51.5° C.) to paw licking or Jumping accurrence was recorded as the response latency.
(§4) Animals were removed as soon as they reacted or after 30 seconds if they at 3, 6, 9, 12 and 15 minutes after the i.c.v. treatment and the latency times measured were used to calculate the reaction time areas. At first the compounds of formula I and Bestatin were administered simultaneously to methionine-enkephalin (dissolved in the same solution) by intracerebroventricular treatment to evaluate their activity without any interference due to absorbtion or diffusion through the blood-brain barrier.
Then the compounds of formula I and Bestatin were tested after intravenous (i.v.) administration to study their diffusion across blood-brain barrier.
The administration i.v. of the compounds of formula I and of Bestatin was simultaneous to methionine-enkephalin administration i.c.v.

[2] = test system: methionine-enkephalin-induced analgesia; assay: Potentiation of methionine-enkephalin-induced analgesia (hot plate test), product given i.c.v.; assay type: in vivo, Male Swiss mice; conditions: for Reaction time areas, Product Met-enk: product 0.16 μmoles i.c.v. together with Met-enk i.c.v., hot plate; for Reaction time areas, Product: product alone, 0.16 μmoles i.c.v., hot plate 51.5° C., 3-15 min
Description: as §1, §2, §3, §4

[3] = product 0.05 mmoles/kg i.v. simultaneous to Met-enk i.c.v.
[4] = product 0.08 mmoles/kg i.v. simultaneous to Met-enk i.c.v.

| Compound | Activity of enhancing analgesia induced by opioids when administered by intravenous route ([1]; intravenous route, in words) | Reaction time areas, Product Met-enk [1, 3] | Reaction time areas, Product Met-enk [1, 4] | Reaction time areas, Product ([1]; 0.05 mmoles/kg i.v.) | Reaction time areas, Product ([1]; 0.08 mmoles/kg i.v.) | Reaction time areas, Product Met-enk [2] | Reaction time areas, Product [2] | Reaction time areas, Met-enk ([1]; Met-enk alone i.c.v., control group of each Table 2 experiment) | Reaction time areas, Met-enk ([2]; Met-enk alone i.c.v., control group of each Table 1 experiment) |
| --- | --- | --- | --- | --- | --- | --- | --- | --- | --- |
| CC(C)C[C@H](NC(=O)[C@@H](O)[C@H](N)Cc1ccccc1)C(=O)O [Bestatin, [(2S,3R)-3-amino-2-hydroxy-4-phenyl-butanoyl]-L-leucine] | practically inactive; also recorded: not active | 202 ± 6.9 | 212 ± 10.0 | 173 ± 3.7 | 182 ± 8.3 | 268 ± 11.3 | 222 ± 13.3 | – | – |
| CS(=O)(=O)c1ccc(C[C@@H](N)[C@H](O)C(=O)NC2(C(=O)O)CCCC2)cc1 [Compound 2, 1-[(2S,3R)-3-amino-2-hydroxy-4-(4-methylsulfonyl-phenyl)-butanoyl]-amino-1-cyclopentanecarboxylic acid] | – | 243 ± 15.9 | 233 ± 10.1 | 190 ± 7.8 | 191 ± 8.5 | – | – | – | – |
| CS(=O)(=O)c1ccc(C[C@@H](N)[C@H](O)C(=O)NC2(C(=O)O)CCC2)cc1 [Compound 4, 1-[(2S,3R)-3-amino-2-hydroxy-4-(4-methylsulfonyl-phenyl)-butanoyl]-amino-1-cyclobutanecarboxylic acid] | – | – | – | – | – | 290 ± 17.1 | 179 ± 9.9 | – | – |
| Methionine-enkephalin [Met-enk] | – | – | – | – | – | – | – | 199 ± 14.0 and 197 ± 16.7 and 208 ± 8.3 and 200 ± 6.1 and 197 ± 9.7 | 207 ± 15.6 and 173 ± 11.2 and 188 ± 4.7 |
